From patent publication US10131675B2 (Genentech, Inc., priority 2015, dated 2018)

What follows are compounds tested against DLK (Homo sapiens (Human), UniProt Q12852) (assay: DLK TR-FRET Inhibition Assay). Settings: N-terminally GST-tagged DLK (catalytic domain amino acid 1-520), MKK4 K131M substrate, 30 μM ATP; read-out: DLK HTRF Ki.
Assay type: biochemical
How it was run: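 GST-tagged DLK catalytic domain (aa 1-520, 5 nM) phosphorylates 40 nM HIS-tagged MKK4 K131M with 30 μM ATP, pH 7.5, 60 min at ambient temperature; compounds 1:3 serial from 20 uM. Phospho-MKK4 detected by TR-FRET (Eu-cryptate anti-phospho-MKK4/D2 anti-HIS) after 3 h.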

Chain of DLK (Q12852 1-520): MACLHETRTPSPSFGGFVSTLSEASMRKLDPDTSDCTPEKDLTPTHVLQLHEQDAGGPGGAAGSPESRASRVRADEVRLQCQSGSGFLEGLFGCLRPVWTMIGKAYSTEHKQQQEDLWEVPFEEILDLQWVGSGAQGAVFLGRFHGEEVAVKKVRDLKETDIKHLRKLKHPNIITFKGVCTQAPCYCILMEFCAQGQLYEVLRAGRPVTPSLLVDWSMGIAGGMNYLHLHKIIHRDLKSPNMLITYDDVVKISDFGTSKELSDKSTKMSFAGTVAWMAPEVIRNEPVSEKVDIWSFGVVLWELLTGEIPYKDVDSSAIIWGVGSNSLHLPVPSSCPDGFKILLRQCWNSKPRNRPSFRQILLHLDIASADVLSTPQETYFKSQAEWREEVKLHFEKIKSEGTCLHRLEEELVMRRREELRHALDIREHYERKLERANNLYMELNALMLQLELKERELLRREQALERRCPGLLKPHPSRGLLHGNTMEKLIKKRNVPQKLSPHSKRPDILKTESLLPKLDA

Row | Structure (SMILES) | Ki [nM]
1 | COc1cc(-c2nc(N3CC(F)(F)C3)c3nc4n(c3n2)CCOC4(C)C)cnc1N [Example 65, 5-(4-(3,3-difluoroazetidin-1-yl)-6,6-dimethyl-8,9-dihydro-6H-[1,4]oxazino[4,3-e]purin-2-yl)-3-methoxypyridin-2-amine] | 860
2 | Cc1c[nH]c2ncc(-c3nc(N4CC(F)(F)C4)c4nc5n(c4n3)CCOC5(C)C)cc12 [Example 66] | 11.9
3 | CC(C)c1c[nH]c2ncc(-c3nc(N4CC(F)(F)C4)c4nc5n(c4n3)CCOC5(C)C)cc12 [Example 67] | 32.7
4 | CC1(C)OCCn2c1nc1c(N3CC(F)(F)C3)nc(-c3cnc(N)nc3)nc12 [Example 68] | 480
5 | CCOc1cc(-c2nc(N3CC(F)(F)C3)c3nc4n(c3n2)CCOC4(C)C)cnc1N [Example 69] | 289
6 | CC1(C)OCCn2c1nc1c(N3CC(F)(F)C3)nc(-c3cnc(N)c(OCC4CC4)c3)nc12 [Example 70] | 417
7 | CC(C)Oc1cc(-c2nc(N3CC(F)(F)C3)c3nc4n(c3n2)CCOC4(C)C)cnc1N [Example 71] | 104
8 | CCC(C)Oc1cc(-c2nc(N3CC(F)(F)C3)c3nc4n(c3n2)CCOC4(C)C)cnc1N (stereo not shown) [Example 72] | 230
9 | COc1cc(-c2nc(N3CCC(F)(F)C3)c3nc4n(c3n2)CCOC4(C)C)cnc1N [Example 73, 5-(4-(3,3-difluoropyrrolidin-1-yl)-6,6-dimethyl-8,9-dihydro-6H-[1,4]oxazino[4,3-e]purin-2-yl)-3-methoxypyridin-2-amine] | 297
10 | Cc1c[nH]c2ncc(-c3nc(N4CCC(F)(F)C4)c4nc5n(c4n3)CCOC5(C)C)cc12 [Example 74] | 25.9
11 | CC(C)c1c[nH]c2ncc(-c3nc(N4CCC(F)(F)C4)c4nc5n(c4n3)CCOC5(C)C)cc12 [Example 75] | 112
12 | CC1(C)OCCn2c1nc1c(N3CCC(F)(F)C3)nc(-c3cnc(N)nc3)nc12 [Example 76] | 97.6
13 | CC1(C)OCCn2c1nc1c(N3CCC(F)(F)C3)nc(-c3cnc(N)c(OCC4CC4)c3)nc12 [Example 77] | 588
14 | CCOc1cc(-c2nc(N3CCC(F)(F)C3)c3nc4n(c3n2)CCOC4(C)C)cnc1N [Example 78] | 558
15 | CC(C)Oc1cc(-c2nc(N3CCC(F)(F)C3)c3nc4n(c3n2)CCOC4(C)C)cnc1N [Example 79] | 269
16 | CCC(C)Oc1cc(-c2nc(N3CCC(F)(F)C3)c3nc4n(c3n2)CCOC4(C)C)cnc1N (stereo not shown) [Example 80] | 443
17 | CC1(C)OCCn2c1nc1c(N3CCC(F)(F)C3)nc(-c3cnc(N)c(Cl)c3)nc12 [Example 81] | 272
18 | CC1(C)OCCn2c1nc1c(N3CCC(F)(F)C3)nc(-c3cnc(N)c(F)c3)nc12 [Example 82] | 280

Results, then the compound that gave them:

Row | Ki [nM] | Structure (SMILES)
19 | 497 | CC1(C)OCCn2c1nc1c(N3CCC(F)(F)C3)nc(-c3cnc4ccnn4c3)nc12 [Example 83]
20 | 357 | CC1(C)OCCn2c1nc1c(OC3CCCC3)nc(-c3cnc(N)nc3)nc12 [Example 84, 5-(4-(cyclopentyloxy)-6,6-dimethyl-8,9-dihydro-6H-[1,4]oxazino[4,3-e]purin-2-yl)pyrimidin-2-amine]
21 | 571 | CC(C)Oc1nc(-c2cnc(N)nc2)nc2c1nc1n2CCOC1(C)C [Example 85]
22 | 634 | CC1(C)OCCn2c1nc1c(OCC3CC3)nc(-c3cnc(N)nc3)nc12 [Example 86]
23 | 14 | COc1nc(-c2cnc3[nH]cc(C(F)(F)F)c3c2)nc2c1nc1n2CCOC1(C)C [Example 87]
24 | 330 | CC1(C)OCCn2c1nc1c(OC3CCC3)nc(-c3cnc(N)nc3)nc12 [Example 88]
25 | 551 | CC1(C)OCCn2c1nc1c(OC3CC4CC4C3)nc(-c3cnc(N)nc3)nc12 (stereo not shown) [Example 89]
26 | 5.98 | CC1(C)OCCn2c1nc1c(N3CC4CC3C4)nc(-c3cnc(N)c(C(F)(F)F)c3)nc12 [Example 90, 5-(4-(2-azabicyclo[2.1.1]hexan-2-yl)-6,6-dimethyl-8,9-dihydro-6H-[1,4]oxazino[4,3-e]purin-2-yl)-3-(trifluoromethyl)pyridin-2-amine]
27 | 478 | CC1(C)OCCn2c1nc1c(N3CC4CC3C4)nc(-c3cncc(C(F)(F)F)c3)nc12 [Example 92, 4-(2-azabicyclo[2.1.1]hexan-2-yl)-6,6-dimethyl-2-(5-(trifluoromethyl)pyridin-3-yl)-8,9-dihydro-6H-[1,4]oxazino[4,3-e]purine]
28 | 476 | CC1(c2nc(-c3cnc(N)nc3)nc3c2nc2n3CCOC2(C)C)CC1 [Example 95, 5-(6,6-dimethyl-4-(1-methylcyclopropyl)-8,9-dihydro-6H-[1,4]oxazino[4,3-e]purin-2-yl)pyrimidin-2-amine]
29 | 225 | CC1(C(F)(F)F)OCCn2c1nc1c(N3CC4CC3C4)nc(-c3cnc(N)nc3)nc12 (stereo not shown) [Example 100, 5-(4-(2-azabicyclo[2.1.1]hexan-2-yl)-6-methyl-6-(trifluoromethyl)-8,9-dihydro-6H-[1,4]oxazino[4,3-e]purin-2-yl)pyrimidin-2-amine]
30 | 1000 | CC1(C)OCCn2c1nc1c(C3(C#N)CCC3)nc(-c3cnc(N)nc3)nc12 [Example 103, 1-(2-(2-aminopyrimidin-5-yl)-6,6-dimethyl-8,9-dihydro-6H-[1,4]oxazino[4,3-e]purin-4-yl)cyclobutanecarbonitrile]
31 | 297 | CC1(C)OCCn2c1nc1c(C3CCC3)nc(-c3cnc(N)nc3)nc12 [Example 104, 5-(4-cyclobutyl-6,6-dimethyl-8,9-dihydro-6H-[1,4]oxazino[4,3-e]purin-2-yl)pyrimidin-2-amine]
32 | 379 | CC1(C)OCCn2c1nc1c(N3CC(O)C3)nc(-c3cnc4[nH]cnc4c3)nc12 [Example 109, 1-(2-(3H-imidazo[4,5-b]pyridin-6-yl)-6,6-dimethyl-8,9-dihydro-6H-[1,4]oxazino[4,3-e]purin-4-yl)azetidin-3-ol]
33 | 1.25 | CC1(C)OCCn2c1nc1c(N3CC(C#N)C3)nc(-c3cnc4[nH]cc(Cl)c4c3)nc12 [Example 110, 1-(2-(3-chloro-1H-pyrrolo[2,3-b]pyridin-5-yl)-6,6-dimethyl-8,9-dihydro-6H-[1,4]oxazino[4,3-e]purin-4-yl)azetidine-3-carbonitrile]
34 | 885 | COC1CN(c2nc(-c3cnc4[nH]cnc4c3)nc3c2nc2n3CCOC2(C)C)C1 [Example 111, 2-(3H-imidazo[4,5-b]pyridin-6-yl)-4-(3-methoxyazetidin-1-yl)-6,6-dimethyl-8,9-dihydro-6H-[1,4]oxazino[4,3-e]purine]
35 | 458 | CC1(C)OCCn2c1nc1c(N3CC(C#N)C3)nc(-c3cnc4[nH]cnc4c3)nc12 [Example 112, 1-(2-(3H-imidazo[4,5-b]pyridin-6-yl)-6,6-dimethyl-8,9-dihydro-6H-[1,4]oxazino[4,3-e]purin-4-yl)azetidine-3-carbonitrile]
36 | 521 | Cn1cc(-c2nc(-c3cnc(N)nc3)nc3c2nc2n3CCOC2(C)C)cn1 [Example 113, 5-(6,6-dimethyl-4-(1-methyl-1H-pyrazol-4-yl)-8,9-dihydro-6H-[1,4]oxazino[4,3-e]purin-2-yl)pyrimidin-2-amine]
37 | 52.1 | Nc1ncc(-c2nc(N3CC4CC3C4)c3nc4n(c3n2)CCOC42CCC2)cn1 [Example 114, 5-(4-(2-azabicyclo[2.1.1]hexan-2-yl)-8,9-dihydrospiro[[1,4]oxazino[4,3-e]purine-6,1′-cyclobutan]-2-yl)pyrimidin-2-amine]
